Experimental data as given in PMC12051620, “Molecular basis underlying the specificity of an antagonist AA92593 for mammalian melanopsins” (The Journal of Biological Chemistry, 2025).

Experiments:
[1] = tested on: jumping spider rhodopsin-1 I189^ECL2W; assay: GsX GloSensor assay with Gsα/q11; format: cell-based; settings: 16.7 μM AA92593, COS-1 cells
Source text: (§1) We next tested the effect of AA92593 on jumping spider rhodopsin-1, a Gq-coupled visual opsin but not melanopsin (see Figs. 2, S2, and S3) ([41]). Similar to non-mammalian-type and invertebrate melanopsins, jumping spider rhodopsin-1 was not sensitive to AA92593 as assessed using the GsX GloSensor assay (Fig. 7L). […] The introduction of I189^ECL2W/Y207^5.42F impaired the light-dependent cAMP responses even in the absence of AA92593 (Fig. S11). Taken together, the non-melanopsin Gq-coupled opsin cannot be functionally converted to an AA92593-sensitive type by site-directed mutagenesis, in contrast to non-mammalian-type and invertebrate melanopsins.
(§2) For GloSensor assay, opsins, GloSensor assay sensor (coded by pGlo-22F), and NanoBiT-tagged G proteins were transiently expressed in COS-1 cells (kindly provided from Dr David Farrens, Oregon Health and Science University) using PEI as described previously ([24], [52]). […] For GFP-fluorescence microscopy, a 35-mm cell culture dish (IWAKI) was transfected with 2 μg melanopsin-GFP plasmid and 8 μg PEI in 400 μl Opti-mem and 1.2 ml D-MEM. […]
(§3) The transfected COS-1 cells were incubated at 37 °C, 5% CO2 for 2 days, and the medium was aspirated and exchanged with 50 μl of HBSS (145 mM NaCl, 10 mM D-glucose, 5 mM KCl, 1 mM MgCl2, 1.7 mM CaCl2, 1.5 mM NaHCO3, 10 mM Hepes, pH 7.4), containing 33.3, 20, 10, 2, 0.2, 0.02, 0.002, or 0 μM AA92593, 0.5% dimetyl sulfoxide (DMSO), and 4% (vol/vol) GloSensor cAMP reagent stock solution. […] Then, the cells were incubated at room temperature for 1 h, and luminescence changes were monitored. After incubation of the cells with AA92593, luminescence measurement was interrupted, the plate was ejected, and the cells were added with 50 μl of HBSS containing 0.2 μM 9-cis-retinal. […] Luminescence was measured using GM-2000 or GM-3510 microplate reader (Promega). Luminescence level of each well was measured every 30 s with integration time of 0.6 to 0.9 s. […] After illumination, luminescence measurement was resumed. The measured luminescence levels were normalized to the level at the starting point (time = 0 min). […]

[2] = tested on: jumping spider rhodopsin-1 M94^2.61F/T188^ECL2S/L269^6.52S; assay: GsX GloSensor assay with Gsα/q11; format: cell-based; settings: 16.7 μM AA92593, COS-1 cells
Source text: as §1, §2, §3

[3] = tested on: jumping spider rhodopsin-1 Y207^5.42F; assay: GsX GloSensor assay with Gsα/q11; format: cell-based; settings: 16.7 μM AA92593, COS-1 cells
Source text: as §1, §2, §3

[4] = dissolution in HBSS assay solution; format: physicochemical; settings: HBSS solution pH 7.4, 0.5% DMSO
Method: The transfected COS-1 cells were incubated at 37 °C, 5% CO2 for 2 days, and the medium was aspirated and exchanged with 50 μl of HBSS (145 mM NaCl, 10 mM D-glucose, 5 mM KCl, 1 mM MgCl2, 1.7 mM CaCl2, 1.5 mM NaHCO3, 10 mM Hepes, pH 7.4), containing 33.3, 20, 10, 2, 0.2, 0.02, 0.002, or 0 μM AA92593, 0.5% dimetyl sulfoxide (DMSO), and 4% (vol/vol) GloSensor cAMP reagent stock solution. Under our experimental conditions, >50 μM AA92593 was not fully dissolved in the HBSS solution, and we set maximal concentration of AA92593 (Glixx Laboratories) at 33.3 μM (final concentration of 16.7 μM, see below). Then, the cells were incubated at room temperature for 1 h, and luminescence changes were monitored. After incubation of the cells with AA92593, luminescence measurement was interrupted, the plate was ejected, and the cells were added with 50 μl of HBSS containing 0.2 μM 9-cis-retinal. […] Luminescence was measured using GM-2000 or GM-3510 microplate reader (Promega). Luminescence level of each well was measured every 30 s with integration time of 0.6 to 0.9 s. To illuminate opsins, luminescence measurement was interrupted, the plate was ejected, and the plate was illuminated by white light with CN-160 LED video light (light intensity, ∼9 mW/cm^2) (NEEWER). […] After illumination, luminescence measurement was resumed. […]

COc1ccc(S(=O)(=O)N2CCCCC2)cc1C [AA92593]
change in sensitivity to AA92593 vs WT [1]: did not increase | change in sensitivity to AA92593 vs WT [2]: did not increase | change in sensitivity to AA92593 vs WT [3]: did not increase | concentration at which AA92593 was not fully dissolved [4]: > 50 µM
